From US20250197864A1, “LNCRNA TRANSCRIPTS IN MELANOMAGENESIS” (The Regents of the University of California, priority 2021, published 2025)

Test system: gene expression in D04 melanoma cells
Test: RNA-Seq differential expression analysis (DESeq2)
Type: cell-based, human
Method: Total RNA was isolated using the RNeasy mini Kit (QIAGEN) following the manufacturer's protocol. Quality check for extracted RNA was done using 2100 Bioanalyzer (Agilent Technologies, USA) or Tapestation System (Agilent Technologies, USA). […] For samples used for identification of MAPK-responsive lncRNAs, paired-end, 101-bp sequencing was performed by Centrillion Genomic Services (Centrillion Biosciences, USA) on an Illumina HiSeq 2000. For DE gene analysis of ASO-transfected D04 samples, paired-end, 2×150-bp sequencing was performed by Genewiz (USA) on a Illumina HiSeq.
Sequence reads were aligned to the human genome (hg19) using TopHat (Version 2.0.11).
Differential expression (DE) analysis was done using DESeq2. Differentially expressed genes were defined by more than 1.5-fold changes (log 2 >0.58 or <−0.58) in expression with FDR<0.05. GO term analysis was done using DAVID Functional Annotation Clustering analysis.
To examine the biomolecular changes upon TRASH-inhibition in melanoma, D04 cells were treated with TRASH-ASOs (SEQ ID NO:15) and Control-ASOs and RNA was extracted and used for RNA-Seq. […] These GO terms consisted of genes encoding growth factors, tyrosine kinases, G protein coupled receptor subunits, and collagen subunits. Scatter plot diagram showing differential gene expression after TRASH-ASO treatment compared to Control-ASO treatment. (cut-off for significance was adjusted p-value <0.05). Data was obtained from RNA-Seq of D04 melanoma cells, treatment period was three days. (FIG. 5c)

Sequence: GACTGGAGATAATTAA (gapmer, pattern not given here) [SEQ ID NO: 15, GapmeR ASO targeting AC004540.4 (TRASH), exon region of both isoforms; used for in vitro experiments]
- log2FoldChange (LINC00689 (ENSG00000231419)): 1.29
- log2FoldChange (LINC00707 (ENSG00000238266)): 1.936
- log2FoldChange (LINC00879 (ENSG00000239589)): −0.6051
- log2FoldChange (LINC00957 (ENSG00000235314)): 1.503
- log2FoldChange (LINC00973 (ENSG00000240476)): 1.339
- log2FoldChange (LINC01204 (ENSG00000229563)): 1.543
- log2FoldChange (LINC01444 (ENSG00000264301)): 1.479
- log2FoldChange (LINC01468 (ENSG00000231131)): 1.433
- log2FoldChange (LINC01505 (ENSG00000234323)): −0.6329
- log2FoldChange (LINC01583 (ENSG00000259518)): 1.348
- log2FoldChange (LINC01638 (ENSG00000233521)): 1.544
- log2FoldChange (LINC01770 (ENSG00000225285)): −0.5999
- log2FoldChange (LINC02009 (ENSG00000283646)): 2.6101
- log2FoldChange (LINC02109 (ENSG00000259786)): −0.684
- log2FoldChange (LINC02302 (ENSG00000258998)): 1.424
- log2FoldChange (LINC02506 (ENSG00000251129)): −0.687
- log2FoldChange (LINC02551 (ENSG00000254842)): 1.274
- log2FoldChange (LOXL2 (ENSG00000134013)): −0.5824
- log2FoldChange (LOXL3 (ENSG00000115318)): −0.6239
- log2FoldChange (LPAR1 (ENSG00000198121)): −0.683
- log2FoldChange (LRRC2 (ENSG00000163827)): 1.394
- log2FoldChange (LRRC17 (ENSG00000128606)): −0.6716
- log2FoldChange (LRRK1 (ENSG00000154237)): −0.6611
- log2FoldChange (MACROD2 (ENSG00000172264)): −0.705
- log2FoldChange (MAML2 (ENSG00000184384)): −0.6085
- log2FoldChange (MAP3K3 (ENSG00000198909)): −0.63
- log2FoldChange (MAP3K7CL (ENSG00000156265)): 1.53
- log2FoldChange (MAP7D2 (ENSG00000184368)): 1.513
- log2FoldChange (MATN1 (ENSG00000162510)): 1.294
- log2FoldChange (MCF2L (ENSG00000126217)): 3.367
- log2FoldChange (MECR (ENSG00000116353)): −0.6676
- log2FoldChange (MEGF9 (ENSG00000106780)): −0.634
- log2FoldChange (MEIS1 (ENSG00000143995)): −0.6955
- log2FoldChange (MLLT1 (ENSG00000130382)): −0.682
- log2FoldChange (MMP3 (ENSG00000149968)): 1.815
- log2FoldChange (MPP4 (ENSG00000082126)): 1.479
- log2FoldChange (MRGPRX4 (ENSG00000179817)): 1.367
- log2FoldChange (MSANTD2 (ENSG00000120458)): −0.6954
- log2FoldChange (MUC4 (ENSG00000145113)): 2.706
- log2FoldChange (MVB12B (ENSG00000196814)): −0.6767
- log2FoldChange (MYBPH (ENSG00000133055)): −0.6322
- log2FoldChange (MYCT1 (ENSG00000120279)): 3.863
- log2FoldChange (MYH16 (ENSG00000002079)): 1.514
- log2FoldChange (MYOCD (ENSG00000141052)): −0.6639
- log2FoldChange (NA (ENSG00000170647)): −0.6428
- log2FoldChange (NAP1L3 (ENSG00000186310)): 1.339
- log2FoldChange (NBEA (ENSG00000172915)): −0.6249
- log2FoldChange (NBEAP1 (ENSG00000258590)): 1.338
- log2FoldChange (NCALD (ENSG00000104490)): −0.6411
- log2FoldChange (NCAM1 (ENSG00000149294)): −0.6126
- log2FoldChange (NCKAP5L (ENSG00000167566)): −0.6233
- log2FoldChange (NES (ENSG00000132688)): −0.6119
- log2FoldChange (NLRC3 (ENSG00000167984)): 1.713
- log2FoldChange (NLRP1 (ENSG00000091592)): −0.7071
- log2FoldChange (NLRP3 (ENSG00000162711)): 2.515
- log2FoldChange (NLRP5 (ENSG00000171487)): 6.997
- log2FoldChange (NLRP10 (ENSG00000182261)): 1.584
- log2FoldChange (NOSTRIN (ENSG00000163072)): −0.6677
- log2FoldChange (NR2F1 (ENSG00000175745)): −0.6433
- log2FoldChange (NR2F1-AS1 (ENSG00000237187)): −0.5814
- log2FoldChange (OLFML2A (ENSG00000185585)): −0.6037
- log2FoldChange (ONECUT2 (ENSG00000119547)): 1.306
- log2FoldChange (OPRK1 (ENSG00000082556)): 1.22
- log2FoldChange (OVAAL (ENSG00000236719)): 1.572
- log2FoldChange (P2RX6 (ENSG00000099957)): −0.6686
- log2FoldChange (P2RX7 (ENSG00000089041)): −0.5889
- log2FoldChange (PADI1 (ENSG00000142623)): 2.566
- log2FoldChange (PADI3 (ENSG00000142619)): 1.708
- log2FoldChange (PAPPA (ENSG00000182752)): −0.6776
- log2FoldChange (PCDH12 (ENSG00000113555)): 1.386
- log2FoldChange (PCDHB15 (ENSG00000113248)): −0.6069
- log2FoldChange (PDE2A (ENSG00000186642)): 1.553
- log2FoldChange (PDE8A (ENSG00000073417)): −0.6263
- log2FoldChange (PEAR1 (ENSG00000187800)): 1.726
- log2FoldChange (PGM5P2 (ENSG00000277778)): 1.447
- log2FoldChange (PIGR (ENSG00000162896)): 1.274
- log2FoldChange (PIWIL2 (ENSG00000197181)): 1.787
- log2FoldChange (PKHD1L1 (ENSG00000205038)): 1.46
- log2FoldChange (PKIA (ENSG00000171033)): −0.6985
- log2FoldChange (PLA2G7 (ENSG00000146070)): 1.312
- log2FoldChange (PLAT (ENSG00000104368)): −0.6194
- log2FoldChange (PLCD4 (ENSG00000115556)): −0.6812
- log2FoldChange (PLCL1 (ENSG00000115896)): −0.6782
- log2FoldChange (PLCXD2 (ENSG00000240891)): 1.882
- log2FoldChange (PLEKHA2 (ENSG00000169499)): −0.6601
- log2FoldChange (PLIN4 (ENSG00000167676)): −0.6819
- log2FoldChange (POU2F3 (ENSG00000137709)): 1.244
